≈ marks a conversion by molar mass, not a printed value.
System: Plasmodium falciparum
Test: Antimalarial activity against multidrug-resistant Plasmodium falciparum K1 by [3H]hypoxanthine uptake
Format: functional, organism-based

For `C[C@@H]1CC[C@H]2[C@@H](C)C(=O)O[C@@H]3O[C@@]4(C)CC[C@@H]1[C@]32OO4` [ARTEMISININ], the IC50 was 0.001 µg/mL (≈ 0.00354 µM).
`COc1cccc2c1c(-c1c3c4c(cc5c(c4c4cccc(OC)c14)OCO5)CCN3)c1c3c(cc4c(c32)OCO4)CCN1` [BIDEBILINE C] gave an IC50 of 5.4 µg/mL (≈ 9.24 µM).
`COc1ccc2c(-c3c4c5c(cc6c(c5c5cc(OC)ccc35)OCO6)CCN4)c3c4c(cc5c(c4c2c1)OCO5)CCN3` [BIDEBILINE D] was tested, and the IC50 was 4.1 µg/mL (≈ 7.01 µM).

Reference: ChEMBL document CHEMBL1159382, “New antimalarial bis-dehydroaporphine alkaloids from Polyalthia debilis” (J Nat Prod, 2003)
